Where two headings read alike, the source gives them in different places. Values belong to the compound of their own block, whether it stands above or below them.
How the values were obtained:
[1] = Water solubility (remark on administration); format: physicochemical
in vivo [2] = test: in vivo; parameters: species or system male Sprague-Dawley rats; conditions: rat, BA
Method: (§1) The experiment was carried out according to the Yasuhara's method using intestinal loop in rats [see Journal of Pharmacobio-Dynamics, 2, 251 (1979)]. That is, male Sprague-Dawley rats weighing 220-260 g were fasted an overnight prior to surgery; however drinking water was readily accessible. The rats were anesthetized by sodium pentobarbital using an intraperitoneal injection of 50 mg/kg. The small intestine was exposed by a midline abdominal incision. The intestinal loop studied was used approximately 15 cm of the duodenal-jejunal site that was approximately 2 cm off the outlet of bile duct.
The suspension or solution containing active ingredients was directly administered into the loop and the both ends of the loop were closed. […] The active ingredient and the degradation products in sample were determined with high pressure liquid chromatography. […]
When Experiment 1 was carried out by using Compound A and D, blood was collected after a given period of time (0, 15, 30, 60 and 120 minutes after). The concentration of the active ingredient in blood was determined with high pressure liquid chromatography, and Area Under the plasma concentration-time Curve (AUC) was calculated and then bioavailability (BA) was calculated according to the following formula by comparing with AUC in intravenous administration. […]

in vivo [3] = test: in vivo; parameters: species or system male Beagle dogs; conditions: dog, plasma, po, read-out: BA
Method: When Experiment 1 was carried out by using Compound A and D, blood was collected after a given period of time (0, 15, 30, 60 and 120 minutes after). The concentration of the active ingredient in blood was determined with high pressure liquid chromatography, and Area Under the plasma concentration-time Curve (AUC) was calculated and then bioavailability (BA) was calculated according to the following formula by comparing with AUC in intravenous administration. [formula] [AUCid]: AUC in intraduodenal administration [AUCiv]: AUC in intravenous administration
Each one soft capsule prepared in Reference Example 1, 2, 3, 4, 5 and 6 (used only a suspension of Example 2 (compound B) in Reference Example 4,5 and 6) was administered orally with 50 ml of water to six male Beagle dogs fasted an overnight (aged one to two and weighing 10±1 kg). By the same procedures as described in Experiment 2, the concentration of the active ingredient in blood, AUC, and then BA were calculated.
^1 Comparison: Compound A or Compound B (10 mg/5 ml) of water/kg
animal body weight) was orally administered.

in vivo [4] = test: in vivo; parameters: species or system male Sprague-Dawley rats; conditions: rat, 5 mg/0.5 ml/animal, read-out: Remaining ratio of the active ingredient in small intestine; for remaining at 5 min: 5 minutes after; for remaining at 0.25 h: 15 minutes after
Method: The inhibitory effect of MCG on the degradation of esters of guanidinobenzoic acid in small intestine
as §1
The suspension or solution containing active ingredients was directly administered into the loop and the both ends of the loop were closed. The experiment with Compound G and I was carried out further by adding pancreatic juice and bile of other rats into the loop by cannula. After a given period of time, the loop was cut out. The contents were washed out with physiological salt solution and/or ethanol, and thereto was added a mixture of 0.1N aqueous methanesulfonic acid, 1,2-dichloroethane and isopropanol. The obtained mixture was centrifuged and the resulting supernatant was used as a sample. In the case of Compound D to H, the washings were directly used as a sample. The active ingredient and the degradation products in sample were determined with high pressure liquid chromatography.
Compound A: p-(p-guanidinobenzoyloxy)phenylacetic acid N,N-dimethylcarbamoylmethyl ester methanesulfonate [drawing 2] Compound B: p-guanidinobenzoic acid 6-amidinonaphth-2-yl ester dimethanesulfonate [drawing 3] Compound C: p-guanidinobenzoic acid methyl ester methanesulfonate [drawing 4] Compound D: 7-(3-tosylaminobicyclo[2.2.1]heptan-2-yl)-5Z-heptenoic acid ethyl ester [drawing 5] Compound E: salicylic acid ethyl ester [drawing 6] Compound F: aspirin [drawing 7] Compound G: 6-keto-16S,18S-ethano-20-ethyl-PGE1 leucine amide [drawing 8] Compound H: N-[3-[N-(4-chlorobenzyl)carbamoyl]propanoyl]-L-prolinal [drawing 9] Compound I: 7-(3-tosylaminobicyclo[2.2.1]heptan-2-yl)-5Z-heptenoic acid glycine amide [drawing 10] (wherein G is a guanidino group.)
H2 O: dissolving in the ratio of 5 mg of active ingredient/0.5 ml of water/animal.
MCM8(glyceryl monocaprylate): suspending in the ratio of 5 mg of active ingredient/0.5 ml of MCM8/animal.
MCT8(glyceryl tricaprylate): suspending in the ratio of 5 mg of active ingredient/0.5 ml of MCT8/animal.
2. 0.5 ml of physiological salt solution (referred to "SALT") for Compound D instead of water, because of its water-insoluble character.
3. 0.1 mg of Compound G were used because of its strong pharmacological effect, and isotonic phosphate buffer solution (referred to "PHOS") (pH 6.5) instead of water was used because of its water-insoluble character.

Compound: COC(=O)c1ccc(NC(=N)N)cc1.CS(=O)(=O)O [Compound C, p-guanidinobenzoic acid methyl ester methanesulfonate]
solubility in water [1]: poor solubility

Compound: CCCC[C@H]1CC[C@H]([C@H](O)/C=C/[C@H]2[C@H](O)CC(=O)[C@@H]2CC(=O)CCCCC(=O)NC(CC(C)C)C(=O)O)C1 (stereo partly drawn) [Compound G, 6-keto-16S,18S-ethano-20-ethyl-PGE1 leucine amide]
solubility in water [1]: water-insoluble

Compound: CCOC(=O)CCC/C=C\CC1C2CCC(C2)C1NS(=O)(=O)c1ccc(C)cc1 (stereo not drawn) [Compound D, 7-(3-tosylaminobicyclo[2.2.1]heptan-2-yl)-5Z-heptenoic acid ethyl ester]
solubility in water [1]: water-insoluble

Second part, the compound after the results:

bioavailability (in vivo [2]): 3%
bioavailability (in vivo [3]; 10 mg/kg, Comparison A (10 mg/5 ml of water/kg body weight)): 6.3 ± 2.4%
bioavailability (in vivo [3]; Reference Example 1 (soft capsule of Example 1 suspension)): 10.9 ± 4.3%
bioavailability (in vivo [3]; Reference Example 2 (enteric-coated soft capsule, carboxymethylethyl cellulose)): 18.4 ± 7.3%
bioavailability (in vivo [3]; Reference Example 3 (enteric-coated soft capsule, hydroxypropylmethyl cellulose acetate succinate)): 17.2 ± 11.5%
Compound: CN(C)C(=O)COC(=O)Cc1ccc(OC(=O)c2ccc(NC(=N)N)cc2)cc1.CS(=O)(=O)O [Compound A, p-(p-guanidinobenzoyloxy)phenylacetic acid N,N-dimethylcarbamoylmethyl ester methanesulfonate]

remaining at 5 min (in vivo [4]; H2O (COMPARISON)): 68.8 ± 1.7%
remaining at 0.25 h (in vivo [4]; H2O (COMPARISON)): 27.5 ± 5.2%
remaining at 5 min (in vivo [4]; MCM8 (INVENTION)): 90 ± 15.6%
remaining at 0.25 h (in vivo [4]; MCM8 (INVENTION)): 70.5 ± 12.1%
remaining at 5 min (in vivo [4]; MCT8 (INVENTION)): 80 ± 3.2%
remaining at 0.25 h (in vivo [4]; MCT8 (INVENTION)): 60.8 ± 7.5%
bioavailability (in vivo [3]; 10 mg/kg, Comparison B (10 mg/5 ml of water/kg body weight)): 1.7 ± 1.2%
bioavailability (in vivo [3]; Reference Example 4 (soft capsule of Example 2 suspension)): 3.2 ± 1.7%
bioavailability (in vivo [3]; Reference Example 5 (enteric-coated soft capsule, as Reference Example 2)): 5 ± 2.5%
bioavailability (in vivo [3]; Reference Example 6 (enteric-coated soft capsule, as Reference Example 3)): 5.1 ± 2.1%
Compound: CS(=O)(=O)O.CS(=O)(=O)O.N=C(N)Nc1ccc(C(=O)Oc2ccc3cc(C(=N)N)ccc3c2)cc1 [Compound B, p-guanidinobenzoic acid 6-amidinonaphth-2-yl ester dimethanesulfonate]

— US5004612A, “Pharmaceutical compositions comprising esters or amides as active ingredients” (priority 1987, dated 1991)
